Laboratory results published in publication PMC5891061, “Electrophysiological mechanisms of vandetanib-induced cardiotoxicity: Comparison of action potentials in rabbit Purkinje fibers and pluripotent stem cell-derived cardiomyocytes” (PLoS ONE, 2018).

Columns and labels:
[1] = test system: hiPSC-CMs; assay: Spontaneous action potential recording in hiPSC-CMs (whole-cell current clamp); assay type: cell-based, human
Description: The hiPSC-CMs from human fibroblast cell lines (iCell Cardiomyocytes; Cellular Dynamics International, Madison, WI, USA) were purchased and cultured for single-cell electrophysiological recordings. Frozen vials of hiPSC-CMs were thawed in a water bath maintained at 37°C and mixed with ice-cold plating medium (iCell Cardiomyocyte Plating Medium, glucose-free). The cells were transferred to four-well culture plates containing 0.1% gelatin-coated glass coverslips and then maintained in a culture incubator at 37°C in an atmosphere of 93% air and 7% CO2. After 2 days of culture, the plating medium was replaced with culture medium (iCell Cardiomyocyte Maintenance Medium, glucose-free), which was then changed every 2 days. The hiPSC-CMs were cultured for 4 weeks and used at 7 to 28 days post-thaw for electrophysiological analysis. At this time, the amplitudes and intervals of the spontaneous APs are stabilized, and electrically connected syncytial layers are formed. […] The internal solution contained (in mM) 120 K-Asp, 20 KCl, 5 NaCl, 2 CaCl2, 10 HEPES, 5 EGTA, and 5 Mg-ATP (pH 7.25). We recorded typical APs in hiPSC-CMs in the current-clamp mode. The spontaneous beating activity or paced firing of single hiPSC-CMs were recorded, and only hiPSC-CMs that could beat stably were included in the analysis. Following stabilization of the AP waveforms, the average of six recorded APs for each test concentration was analyzed.
Using the patch-clamp technique, we measured the APs in spontaneously contracting cells isolated from hiPSC-CMs. […] Ventricular-type APs were distinguished based on the relatively more negative maximal diastolic potential (MDP) and rapid AP upstroke with long plateau phase.

[2] = target: Ca2+-specific inward current (ICa) (Rattus norvegicus, UniProt P22002); assay: Whole-cell patch clamp, ICa in isolated rat ventricular myocytes; assay type: cell-based
Excerpt: For various aspects of cardiac ion channel study, human embryonic kidney (HEK293; ATCC, Manassas, VA, USA) cells were transiently transfected using lipofectAmin2000 (Gibco BRL, New York, NY, USA) according to the manufacturer’s instructions. The hERG (human ether-ago-go-related gene corresponding to IKr), KCNQ1/KCNE1 (the gene corresponding to IKs), KCNJ2 (the gene corresponding to IK1) or SCN5A (the gene corresponding to INa) cDNA was co-transfected with green fluorescence protein, the surface marker protein, to allow assessment of the transfection efficiency. For the calcium current, enzymatically isolated single rat ventricular myocytes were used. Briefly, the hearts were rapidly excised from anaesthetized Sprague–Dawley rats (250–350 g) and perfused via the aorta on a Langendorff apparatus with an oxygenated normal Tyrode (NT) solution for 5 min. To clear the blood, then perfused with Ca^2+-free normal Tyrode solution for 3 min. […]
The external solution for recording the IhERG, IKs and INa channel currents was NT solution. […] The calcium current was measured in naïve rat ventricular myocytes, cells were superfused with an external solution that consisted of (in mM): 137 choline-Cl, 5 CsCl, 0.5 MgCl2, 2 4-AP, 10 HEPES, 10 glucose and 1.8 CaCl2 (pH 7.4 with NaOH), whereas the intracellular solution used to fill the pipette had the following ionic solution (in mM): 20 CsCl, 100 Cs-aspartate, 10 EGTA, 10 HEPES, 20 TEA-Cl, 5 Mg-ATP (pH 7.25 with KOH). […]
pCLAMP (Axon Instruments, Foster City, CA, USA), Origin 8 (OriginLab Corp, Northampton, MA, USA), and Excel (Microsoft, Redmond, WA, USA) were used for data acquisition and analysis. The concentration–response relationships for drug-induced blockage were calculated using SigmaPlot (Systat Software, San Jose, CA, USA). […] Statistical significance was determined using the Student’s t-test and one-way ANOVA with post hoc testing using Dunnett’s method; p < 0.05 was considered to indicate statistical significance. […]

[3] = target: INa in hiPSC-CMs (Homo sapiens, UniProt Q14524); assay: INa current in hiPSC-CMs (voltage clamp); assay type: cell-based; parameters: INa current: unit not given here
Sequence of INa in hiPSC-CMs (Q14524 212-1075 limits assumed): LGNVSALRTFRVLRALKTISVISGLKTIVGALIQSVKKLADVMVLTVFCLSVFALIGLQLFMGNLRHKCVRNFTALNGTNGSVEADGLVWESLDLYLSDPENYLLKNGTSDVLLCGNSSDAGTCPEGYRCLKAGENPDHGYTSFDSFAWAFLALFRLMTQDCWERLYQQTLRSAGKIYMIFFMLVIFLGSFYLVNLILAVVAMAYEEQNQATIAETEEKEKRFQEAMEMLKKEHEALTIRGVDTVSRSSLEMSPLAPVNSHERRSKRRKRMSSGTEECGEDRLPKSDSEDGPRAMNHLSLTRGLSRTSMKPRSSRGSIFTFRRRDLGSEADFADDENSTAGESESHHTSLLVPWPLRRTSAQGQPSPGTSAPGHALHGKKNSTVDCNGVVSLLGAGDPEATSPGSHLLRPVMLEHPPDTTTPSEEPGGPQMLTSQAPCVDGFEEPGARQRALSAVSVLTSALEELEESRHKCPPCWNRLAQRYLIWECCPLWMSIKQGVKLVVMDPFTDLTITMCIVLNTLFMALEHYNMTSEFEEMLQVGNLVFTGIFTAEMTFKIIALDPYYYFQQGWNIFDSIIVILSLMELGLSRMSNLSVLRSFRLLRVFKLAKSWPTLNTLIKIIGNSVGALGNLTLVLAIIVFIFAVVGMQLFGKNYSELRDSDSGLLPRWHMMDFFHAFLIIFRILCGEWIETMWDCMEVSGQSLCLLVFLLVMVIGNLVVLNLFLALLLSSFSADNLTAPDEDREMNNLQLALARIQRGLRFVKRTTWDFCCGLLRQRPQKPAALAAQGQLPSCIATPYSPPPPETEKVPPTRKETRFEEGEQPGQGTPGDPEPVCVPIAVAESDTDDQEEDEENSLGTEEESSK
Sequence of INa in hiPSC-CMs (Q14524 1131-2016 limits assumed): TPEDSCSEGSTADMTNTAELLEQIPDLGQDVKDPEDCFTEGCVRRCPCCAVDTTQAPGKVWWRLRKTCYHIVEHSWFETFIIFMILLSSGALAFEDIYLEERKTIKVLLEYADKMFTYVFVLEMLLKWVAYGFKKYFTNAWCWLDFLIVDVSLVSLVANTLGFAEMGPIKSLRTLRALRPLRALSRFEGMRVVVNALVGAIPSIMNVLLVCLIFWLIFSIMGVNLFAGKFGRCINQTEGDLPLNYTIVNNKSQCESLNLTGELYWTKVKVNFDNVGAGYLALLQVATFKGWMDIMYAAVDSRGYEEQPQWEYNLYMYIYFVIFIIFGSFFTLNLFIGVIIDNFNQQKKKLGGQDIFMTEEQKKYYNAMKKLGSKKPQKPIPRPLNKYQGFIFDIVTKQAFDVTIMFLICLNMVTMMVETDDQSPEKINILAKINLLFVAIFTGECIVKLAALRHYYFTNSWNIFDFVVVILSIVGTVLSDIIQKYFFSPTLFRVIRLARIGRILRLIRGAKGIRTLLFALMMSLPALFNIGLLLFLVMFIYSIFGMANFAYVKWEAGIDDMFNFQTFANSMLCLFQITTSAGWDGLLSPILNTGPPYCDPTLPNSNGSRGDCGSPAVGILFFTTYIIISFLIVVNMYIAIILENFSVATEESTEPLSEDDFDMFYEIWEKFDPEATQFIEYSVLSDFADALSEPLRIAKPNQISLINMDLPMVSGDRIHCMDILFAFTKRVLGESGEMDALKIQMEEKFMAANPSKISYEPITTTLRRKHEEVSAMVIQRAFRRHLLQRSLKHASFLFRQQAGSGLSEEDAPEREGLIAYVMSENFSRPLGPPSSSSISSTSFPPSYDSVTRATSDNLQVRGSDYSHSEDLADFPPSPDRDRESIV

Sequence of Ca2+-specific inward current (ICa) (P22002 whole entry, other chains not shown): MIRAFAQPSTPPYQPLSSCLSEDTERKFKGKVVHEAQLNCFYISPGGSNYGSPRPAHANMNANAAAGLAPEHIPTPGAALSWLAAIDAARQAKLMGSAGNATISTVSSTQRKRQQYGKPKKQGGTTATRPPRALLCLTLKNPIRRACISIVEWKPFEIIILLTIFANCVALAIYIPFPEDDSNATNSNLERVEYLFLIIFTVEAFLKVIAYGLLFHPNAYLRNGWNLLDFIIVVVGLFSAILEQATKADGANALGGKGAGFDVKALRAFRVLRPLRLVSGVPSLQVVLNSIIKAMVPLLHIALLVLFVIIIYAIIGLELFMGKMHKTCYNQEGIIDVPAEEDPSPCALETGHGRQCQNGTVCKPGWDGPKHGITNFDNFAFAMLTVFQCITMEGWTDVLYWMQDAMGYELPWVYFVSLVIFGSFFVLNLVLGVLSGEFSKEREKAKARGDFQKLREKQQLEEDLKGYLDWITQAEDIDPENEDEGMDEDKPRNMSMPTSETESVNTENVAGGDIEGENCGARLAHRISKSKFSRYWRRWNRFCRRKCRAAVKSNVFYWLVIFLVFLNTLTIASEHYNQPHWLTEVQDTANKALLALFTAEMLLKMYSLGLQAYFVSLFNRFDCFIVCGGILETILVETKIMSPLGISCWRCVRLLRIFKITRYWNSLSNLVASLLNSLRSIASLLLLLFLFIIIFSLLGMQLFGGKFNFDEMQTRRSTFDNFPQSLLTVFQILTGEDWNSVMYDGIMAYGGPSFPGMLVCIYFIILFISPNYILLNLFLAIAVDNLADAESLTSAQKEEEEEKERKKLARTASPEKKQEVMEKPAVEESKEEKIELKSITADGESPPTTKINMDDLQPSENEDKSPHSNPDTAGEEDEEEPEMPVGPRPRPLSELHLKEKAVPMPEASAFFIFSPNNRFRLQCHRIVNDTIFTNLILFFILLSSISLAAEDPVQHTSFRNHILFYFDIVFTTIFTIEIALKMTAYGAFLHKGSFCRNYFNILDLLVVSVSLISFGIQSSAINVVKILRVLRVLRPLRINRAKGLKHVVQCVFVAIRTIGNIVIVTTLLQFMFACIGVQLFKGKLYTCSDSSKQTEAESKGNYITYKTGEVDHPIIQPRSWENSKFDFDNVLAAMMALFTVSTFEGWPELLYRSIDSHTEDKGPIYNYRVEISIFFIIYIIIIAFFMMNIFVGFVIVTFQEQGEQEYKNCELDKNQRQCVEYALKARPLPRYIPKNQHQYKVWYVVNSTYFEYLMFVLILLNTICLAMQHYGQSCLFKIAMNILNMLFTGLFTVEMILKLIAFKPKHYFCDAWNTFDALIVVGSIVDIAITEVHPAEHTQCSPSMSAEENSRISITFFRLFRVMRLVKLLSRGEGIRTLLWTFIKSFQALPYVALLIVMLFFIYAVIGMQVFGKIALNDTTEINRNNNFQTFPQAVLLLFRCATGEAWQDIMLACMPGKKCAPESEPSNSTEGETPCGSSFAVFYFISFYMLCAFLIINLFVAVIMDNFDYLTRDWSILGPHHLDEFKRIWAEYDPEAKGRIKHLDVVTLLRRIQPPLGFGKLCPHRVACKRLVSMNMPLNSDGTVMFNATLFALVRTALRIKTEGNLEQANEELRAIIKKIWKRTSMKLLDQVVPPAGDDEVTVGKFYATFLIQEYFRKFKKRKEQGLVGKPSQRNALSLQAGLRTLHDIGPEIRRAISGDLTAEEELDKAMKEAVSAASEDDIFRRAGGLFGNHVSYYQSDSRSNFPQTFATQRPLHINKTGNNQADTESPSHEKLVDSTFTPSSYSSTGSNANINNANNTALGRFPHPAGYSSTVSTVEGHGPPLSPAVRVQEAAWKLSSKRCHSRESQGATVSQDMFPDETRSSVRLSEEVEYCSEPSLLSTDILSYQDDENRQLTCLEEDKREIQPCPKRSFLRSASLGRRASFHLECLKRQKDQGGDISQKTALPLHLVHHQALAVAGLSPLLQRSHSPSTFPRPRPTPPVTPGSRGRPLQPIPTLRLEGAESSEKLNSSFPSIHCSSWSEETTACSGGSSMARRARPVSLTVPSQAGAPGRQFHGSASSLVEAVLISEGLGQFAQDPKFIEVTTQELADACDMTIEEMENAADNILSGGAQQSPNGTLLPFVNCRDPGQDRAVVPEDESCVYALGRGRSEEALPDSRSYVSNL
Sequence of Ca2+-specific inward current (ICa) (P54290 25-1091 partner, other chains not shown): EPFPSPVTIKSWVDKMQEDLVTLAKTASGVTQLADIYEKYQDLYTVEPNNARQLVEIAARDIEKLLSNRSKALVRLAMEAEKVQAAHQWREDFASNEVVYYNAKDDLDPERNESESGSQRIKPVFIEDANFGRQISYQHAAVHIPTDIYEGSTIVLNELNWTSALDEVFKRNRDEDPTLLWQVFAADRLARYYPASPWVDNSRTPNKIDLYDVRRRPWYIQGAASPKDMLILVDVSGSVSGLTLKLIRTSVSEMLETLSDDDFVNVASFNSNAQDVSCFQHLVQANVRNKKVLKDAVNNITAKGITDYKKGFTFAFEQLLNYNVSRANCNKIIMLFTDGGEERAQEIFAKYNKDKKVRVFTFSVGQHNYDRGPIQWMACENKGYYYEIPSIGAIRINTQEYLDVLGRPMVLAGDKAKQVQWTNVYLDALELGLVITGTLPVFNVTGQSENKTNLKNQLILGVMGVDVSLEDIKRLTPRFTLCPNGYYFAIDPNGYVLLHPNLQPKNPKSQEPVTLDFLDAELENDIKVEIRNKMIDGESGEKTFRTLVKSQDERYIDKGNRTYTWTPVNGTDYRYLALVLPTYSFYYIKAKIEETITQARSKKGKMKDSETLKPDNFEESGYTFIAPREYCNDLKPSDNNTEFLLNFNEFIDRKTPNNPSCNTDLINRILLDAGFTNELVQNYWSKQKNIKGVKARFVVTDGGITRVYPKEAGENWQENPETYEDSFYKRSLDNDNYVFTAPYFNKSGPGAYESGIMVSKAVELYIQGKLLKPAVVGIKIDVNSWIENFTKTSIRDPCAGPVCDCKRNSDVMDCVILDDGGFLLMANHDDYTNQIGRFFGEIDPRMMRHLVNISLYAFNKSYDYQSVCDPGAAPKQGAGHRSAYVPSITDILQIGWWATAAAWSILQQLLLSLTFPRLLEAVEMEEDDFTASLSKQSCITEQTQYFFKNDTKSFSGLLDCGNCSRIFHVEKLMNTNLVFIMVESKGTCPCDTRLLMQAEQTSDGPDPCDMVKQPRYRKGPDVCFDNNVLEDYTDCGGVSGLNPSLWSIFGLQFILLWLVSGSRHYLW

SMILES: COc1cc2c(Nc3ccc(Br)cc3F)ncnc2cc1OCC1CCN(C)CC1 [Vandetanib]
- APA ([1]; 0.3 μM): 104.2 ± 3.0 mV
- APD50 ([1]; 0.3 μM): 349.3 ± 50.9 ms
- APD90 ([1]; 0.3 μM): 481.0 ± 53.9 ms
- MDP ([1]; 0.3 μM): -66.9 ± 2.3 mV
- Vmax ([1]; 0.3 μM): 40.3 ± 13.9 V/s
- APA ([1]; 1 μM): 105.5 ± 3.6 mV
- APD50 ([1]; 1 μM): 596.4 ± 158.8 ms
- APD90 ([1]; 1 μM): 880.9 ± 192.6 ms
- MDP ([1]; 1 μM): -64.5 ± 2.4 mV
- Vmax ([1]; 1 μM): 36.0 ± 13.0 V/s
- APA ([1]; 3 μM): 100.7 ± 2.2 mV
- APD50 ([1]; 3 μM): 1243.0 ± 386.1 ms
- APD90 ([1]; 3 μM): 2047.9 ± 597.1 ms
- Decrease of APA compared to vehicle control ([1]; 3 μM): 4.2%
- Decrease of MDP compared to vehicle control ([1]; 3 μM): 9%
- MDP ([1]; 3 μM): -61.0 ± 1.5 mV
- Vmax ([1]; 3 μM): 19.5 ± 6.5 V/s
- Early after depolarization (EAD) ([1]; 3 μM, n = 6 cells): induced at 3 μM of vandetanib in all cells tested
- Concentration from which prolongation of APD50 and APD90 was observed ([1]; tested 0.3, 1, 3 μM): ≥ 1 µM
- ICa current ([2]; 10 μM): -1639.5 ± 238.1
- ICa current ([2]; 30 μM): -990.7 ± 97.8
- ICa current ([2]; 100 μM): -219.7 ± 24.4
- IC50 [3]: 2720 nM
- INa current ([3]; 1 μM): -4046.1 ± 53.7
- INa current ([3]; 3 μM): -2284.0 ± 79.5
- INa current ([3]; 10 μM): -1205.7 ± 89.8
- INa current ([3]; 30 μM): -643.2 ± 33.6
